Data as given in patent US3994925A, “Salt of the silymarin group with aminopolyhydroxy alcohols” (Dr. Madaus & Co., priority 1973, dated 1976).

System: proseodymium nitrate liver damage
Settings: serum, 72 hours after 14 mg/kg praseodymnitrate i.v.; SMG1 140.5 mg/kg i.v. three days, MG1 40.5 mg/kg
Procedure: The liver-protectiveeffect of the SMG1 was tested on white rats, in that experimentally produced liver damage was antagonized by SMG1 treatment. The rats were injected with the SMG1- or MG1-dosages in 5 ml 0.9% NaCl solution, to which 4% of PVP (M.W. about 10,000) was added per kg of body weight. A dosage of 140.5 mg/kg SMG1 corresponds to 100 mg Silymarin and 40.5 mg 1-methylamino-glucose. When the test animals received 140.5 mg/kg SMG1, the control animals were treated with the equivalent dosage of 1-methylamino glucose, i.e. 40.5 mg/kg.
In another series of tests, antagonization of proseodymium nitrate liver damage by SMG1, measured by the reaction of the serum enzyme glutamate-oxalacetate-transaminase (GOT), glutamate-pyruvate-transaminase (GPT), sorbital-dehydrogenase (SDH) and alkaline phosphatases (AP), was employed as a measure of efficacy of the instant materials. […] The test animals, male Wistar rats weighing approximately 200 g, were treated for three days with 140.5 mg/kg SMG1 i.v. On the first testing day, all rats were damaged i.v. with 14 mg/kg praseodymnitrate one hour after the SMG1- or MG1- injection.

1-methylamino glucose [1-methylamino-glucose]
AP (alkaline phosphatase): 168.0 mU/ml
GOT: 360.6 mU/ml
GPT: 118.4 mU/ml
SDH: 32.0 mU/ml
